Experimental findings from PubChem BioAssay AID651581 (Sanford-Burnham Center for Chemical Genomics, 2012) are described below.

For experiment [1], the target named is Hypoxia-inducible factor 1-alpha (Homo sapiens) (UniProt Q16665). The experiment in a line: potency against HIF reporters across cell lines – luminescence, panel, selectivity assay for HIF-2a inhibitor project, dose response (AID 651581). The settings on record: human cell HIF reporter, HIF-1a.
In experiment [2] the target is Endothelial PAS domain-containing protein 1 (Homo sapiens) (UniProt Q99814). The description is as above. The settings on record: human cell HIF reporter.

The source made the active and inactive calls. No rule for the calls is given here. Bounds are passed on as bounds.

The term IC50 denotes the midpoint of a concentration-inhibition curve.

Chain of Hypoxia-inducible factor 1-alpha (Homo sapiens) (Q16665 whole entry, looked up, the tested form may be a part): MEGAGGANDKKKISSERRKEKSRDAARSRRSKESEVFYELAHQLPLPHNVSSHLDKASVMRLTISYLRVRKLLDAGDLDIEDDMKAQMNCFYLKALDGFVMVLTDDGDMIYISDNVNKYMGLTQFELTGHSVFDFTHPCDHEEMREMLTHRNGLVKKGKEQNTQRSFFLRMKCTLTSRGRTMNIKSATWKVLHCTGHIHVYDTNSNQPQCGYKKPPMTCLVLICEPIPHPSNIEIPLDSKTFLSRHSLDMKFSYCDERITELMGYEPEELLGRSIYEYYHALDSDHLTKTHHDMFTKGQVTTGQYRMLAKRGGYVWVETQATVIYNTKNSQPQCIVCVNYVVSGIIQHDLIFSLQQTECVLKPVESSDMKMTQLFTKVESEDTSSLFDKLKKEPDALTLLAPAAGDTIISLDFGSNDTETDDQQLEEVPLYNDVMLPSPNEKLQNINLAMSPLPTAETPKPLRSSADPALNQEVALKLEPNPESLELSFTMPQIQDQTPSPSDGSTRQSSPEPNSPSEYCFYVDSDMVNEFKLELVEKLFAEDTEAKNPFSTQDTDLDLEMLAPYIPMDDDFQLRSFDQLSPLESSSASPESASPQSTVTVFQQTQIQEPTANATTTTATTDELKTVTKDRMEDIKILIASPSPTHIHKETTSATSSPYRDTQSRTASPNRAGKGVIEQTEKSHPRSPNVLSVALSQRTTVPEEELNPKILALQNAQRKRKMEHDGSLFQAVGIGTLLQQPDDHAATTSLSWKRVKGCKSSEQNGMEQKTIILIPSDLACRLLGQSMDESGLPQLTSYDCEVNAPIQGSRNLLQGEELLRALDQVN

Turning to `O=C(NCc1ccccc1)C(=O)Nc1cccc(C(=O)O)c1`, the IC50 in experiment [1] (run 1) is > 99 µM; in experiment [1] (run 2) it was > 99 µM; in experiment [2] (HIF-2a PANC, mean of runs), > 99 µM (inactive); in experiment [2] (HIF-2a PANC, run 1), > 99 µM; in experiment [2] (HIF-2a PANC, run 2) it was > 99 µM; in experiment [2] (HIF-2a, mean of runs), 9.97 µM. Besides, the IC50 was 9.98 µM in experiment [2] (HIF-2a, run 1) and 9.95 µM in experiment [2] (HIF-2a, run 2).

Turning to `O=C(O)c1cccc(-c2nnn(Cc3ccccc3Cl)n2)c1`, the IC50 was > 99 µM in experiment [1] (run 1); > 99 µM in experiment [1] (run 2); > 99 µM (inactive) in experiment [2] (HIF-2a PANC, mean of runs); > 99 µM in experiment [2] (HIF-2a PANC, run 1); > 99 µM in experiment [2] (HIF-2a PANC, run 2); < 30 µM (inactive) in experiment [2] (HIF-2a, mean of runs). For the same compound, the IC50 in experiment [2] (HIF-2a, run 1) was < 30 µM; in experiment [2] (HIF-2a, run 2), < 30 µM.

Regarding `Nc1ccc(-c2ncc(-c3ccccc3)o2)cc1`, the IC50 is 26.7 µM in experiment [1] (mean of runs); 52.5 µM in experiment [1] (run 1); 0.851 µM in experiment [1] (run 2); 0.247 µM in experiment [2] (HIF-2a PANC, mean of runs); 0.202 µM in experiment [2] (HIF-2a PANC, run 1); 0.292 µM in experiment [2] (HIF-2a PANC, run 2). For the same compound, the IC50 in experiment [2] (HIF-2a, mean of runs) is < 0.3 µM; in experiment [2] (HIF-2a, run 1), < 0.3 µM; in experiment [2] (HIF-2a, run 2), < 1 µM.

In the case of `Cc1ccc(NC(=S)NNc2ncc(C(F)(F)F)cc2Cl)cc1`, the IC50 in experiment [1] (mean of runs) was 27 µM; in experiment [1] (run 1) it was 20.4 µM; in experiment [1] (run 2), 33.5 µM; in experiment [2] (HIF-2a PANC, mean of runs), 1.29 µM; in experiment [2] (HIF-2a PANC, run 1) it was 1.66 µM; in experiment [2] (HIF-2a PANC, run 2) it was 0.928 µM. Also, the IC50 was 4.58 µM in experiment [2] (HIF-2a, mean of runs); 4.66 µM in experiment [2] (HIF-2a, run 1); 4.49 µM in experiment [2] (HIF-2a, run 2).

In the case of `CCOC(=O)C1CCN(C(=O)Nc2ccc3snnc3c2)CC1`, the IC50 in experiment [1] (run 1) was > 99 µM; in experiment [1] (run 2), > 99 µM; in experiment [2] (HIF-2a PANC, run 1), 19.4 µM; in experiment [2] (HIF-2a PANC, run 2), 56.8 µM; in experiment [2] (HIF-2a, run 1) it was 8.45 µM; in experiment [2] (HIF-2a, run 2), 14.8 µM. For the same compound, the IC50 entry in experiment [2] (HIF-2a PANC, mean of runs) was “inactive”; in experiment [2] (HIF-2a, mean of runs) it was “inactive”.

Regarding `COc1cc(/C=C/[N+](=O)[O-])ccc1O`, the IC50 entry is “inactive” in experiment [1] (mean of runs) and “inactive” in experiment [2] (HIF-2a, mean of runs). Further, the IC50 is 25.2 µM in experiment [1] (run 1); 28.3 µM in experiment [1] (run 2); > 99 µM (inactive) in experiment [2] (HIF-2a PANC, mean of runs); > 99 µM in experiment [2] (HIF-2a PANC, run 1); > 99 µM in experiment [2] (HIF-2a PANC, run 2); 11.7 µM in experiment [2] (HIF-2a, run 1). The compound also showed a 50% inhibitory concentration (IC50) in experiment [2] (HIF-2a, run 2) of 10.3 µM.

Turning to `O=S(=O)(Nc1cccc2cccnc12)c1ccccc1`, the IC50 in experiment [1] (run 1) is > 99 µM; in experiment [1] (run 2) it was > 99 µM; in experiment [2] (HIF-2a PANC, mean of runs) it was > 99 µM (inactive); in experiment [2] (HIF-2a PANC, run 1), > 99 µM; in experiment [2] (HIF-2a PANC, run 2), > 99 µM; in experiment [2] (HIF-2a, mean of runs), 3.37 µM. For the same compound, the IC50 in experiment [2] (HIF-2a, run 1) was found to be 3.54 µM; in experiment [2] (HIF-2a, run 2) it was 3.2 µM.

In the case of `CC(=O)Nc1ccc(OC(=O)N2CCCCC2)cc1`, the IC50 in experiment [1] (mean of runs) is 11.4 µM; in experiment [1] (run 1), 11.5 µM; in experiment [1] (run 2), 11.2 µM; in experiment [2] (HIF-2a PANC, mean of runs) it was 2.8 µM; in experiment [2] (HIF-2a PANC, run 1), 1.96 µM; in experiment [2] (HIF-2a PANC, run 2), 3.65 µM. Further, the IC50 in experiment [2] (HIF-2a, mean of runs) is 2.33 µM; in experiment [2] (HIF-2a, run 1), 2.32 µM; in experiment [2] (HIF-2a, run 2), 2.34 µM.

`O=C(Nc1ccc(N2CCOCC2)cc1)c1cnccn1`: the IC50 result in experiment [1] (mean of runs) is “inactive”; in experiment [2] (HIF-2a PANC, mean of runs), “inactive”. The half-inhibitory concentration (IC50) is 14.5 µM in experiment [1] (run 1); 21.4 µM in experiment [1] (run 2); 31.5 µM in experiment [2] (HIF-2a PANC, run 1); 33.2 µM in experiment [2] (HIF-2a PANC, run 2); 9.42 µM in experiment [2] (HIF-2a, mean of runs); 9.5 µM in experiment [2] (HIF-2a, run 1). In experiment [2] (HIF-2a, run 2), this compound yielded an IC50 of 9.33 µM.

For `CCOc1ccc2nc(SCc3ccc(CC(=O)O)cc3)c(C#N)cc2c1`, the IC50 in experiment [1] (mean of runs) was 24.6 µM; in experiment [1] (run 1) it was 35.4 µM; in experiment [1] (run 2), 13.8 µM; in experiment [2] (HIF-2a PANC, mean of runs) it was 7.1 µM; in experiment [2] (HIF-2a PANC, run 1), 10.9 µM; in experiment [2] (HIF-2a PANC, run 2), 3.27 µM. Moreover, the IC50 in experiment [2] (HIF-2a, mean of runs) is 6.7 µM; in experiment [2] (HIF-2a, run 1), 5.75 µM; in experiment [2] (HIF-2a, run 2) it was 7.65 µM.

For the compound `N#Cc1ccccc1COc1ccc(/C=C/C(=O)O)cc1`, the IC50 in experiment [1] (mean of runs) was 1.34 µM; in experiment [1] (run 1), 1.56 µM; in experiment [1] (run 2), 1.12 µM; in experiment [2] (HIF-2a PANC, mean of runs), 0.92 µM; in experiment [2] (HIF-2a PANC, run 1), 1.53 µM; in experiment [2] (HIF-2a PANC, run 2), 0.311 µM. In addition, the IC50 in experiment [2] (HIF-2a, mean of runs) is 0.391 µM; in experiment [2] (HIF-2a, run 1) it was 0.37 µM; in experiment [2] (HIF-2a, run 2), 0.412 µM.

Turning to `CNC(=O)NC(=O)COC(=O)CCCSc1nc2ccccc2s1`, the IC50 entry in experiment [1] (mean of runs) is “inactive”. The IC50 is 6.15 µM in experiment [1] (run 1); 8.11 µM in experiment [1] (run 2); 10.7 µM in experiment [2] (HIF-2a PANC, mean of runs); 15.8 µM in experiment [2] (HIF-2a PANC, run 1); 5.59 µM in experiment [2] (HIF-2a PANC, run 2); 4.96 µM in experiment [2] (HIF-2a, mean of runs). In addition, the IC50 in experiment [2] (HIF-2a, run 1) amounted to 5.6 µM; in experiment [2] (HIF-2a, run 2) it was 4.32 µM.
